Values after ≈ are worked out from the molar mass of the structure shown.
Experiments:
MRSA (2658 RCMB) = experiment: MIC against MRSA (2658 RCMB), broth dilution; format: cell-based, Staphylococcus aureus; conditions: Staphylococcus aureus; Table 7; initial screening, MRSA (2658 RCMB); read-out: minimum inhibitory concentration (MIC)
How it was run: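 Broth dilution in cation-adjusted Mueller-Hinton broth with an inoculum of about 5×10^5 CFU/mL (from a 0.5 McFarland suspension), using triplicate serial dilutions. MIC was the lowest concentration with no visible growth by visual inspection, reported as the mean of triplicates.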

MRSA (USA300) = experiment: Time-kill assay; format: cell-based, Staphylococcus aureus; conditions: for bactericidal / bacteriostatic behaviour in time-kill assay, in words: MRSA
Description: Aliquots (100 μL) were taken from each sample after 2, 4, 6, 8, 10, 12, and 24 hours, serially diluted in phosphate-buffered saline, and transferred to Trypticase soy agar (TSA) (Becton, Dickinson and Company, Sparks, Md., USA) plates. Plates were incubated at 37° C. for at least 16 hours before counting viable CFU/mL to determine the time required to reduce the bacterial cell count by 3-log10.

MRSA NRS119 = experiment: MIC/MBC S. aureus strains (Table 8); format: cell-based; conditions: Staphylococcus aureus
Description: (§1) A bacterial solution equivalent to 0.5 McFarland standard was prepared and diluted in cation-adjusted Mueller-Hinton broth (CAMHB) to achieve a bacterial concentration of about 5×10^5 CFU/mL and seeded in 96-well plates. Enterococcus faecium was diluted in brain heart infusion broth. Enterococcus faecalis, Streptococcus pneumonia and Listeria monocytogenes were diluted in tryptone soya broth (TSB).

MRSA NRS123 (USA400) = experiment: MIC/MBC S. aureus strains (Table 8); format: cell-based; conditions: Staphylococcus aureus
Description: as §1

MRSA NRS384 (USA300) = experiment: MIC/MBC S. aureus strains (Table 8); format: cell-based; conditions: Staphylococcus aureus
Description: as §1

MRSA NRS385 = experiment: MIC/MBC S. aureus strains (Table 8); format: cell-based; conditions: Staphylococcus aureus
Description: as §1

MRSA NRS386 = experiment: MIC/MBC S. aureus strains (Table 8); format: cell-based; conditions: Staphylococcus aureus
Description: as §1

S. aureus ATCC 6538 = experiment: MIC/MBC S. aureus strains (Table 8); format: cell-based; conditions: Staphylococcus aureus, ATCC6538
Description: as §1

S. aureus NRS107 = experiment: MIC/MBC S. aureus strains (Table 8); format: cell-based, Staphylococcus aureus; conditions: Staphylococcus aureus; Table 8; S. aureus NRS107
Description: as §1

VRS10 (VRSA) = experiment: MIC/MBC S. aureus strains (Table 8); format: cell-based; conditions: Staphylococcus aureus, Table 8, VRS10 (VRSA); for MBC: read-out: MBC; for MIC: read-out: MIC
Description: (§2) The minimum inhibitory concentration (MIC) of tested compounds and control antibiotics were determined using the broth microdilution method in accordance with the recommendations contained in the Clinical and Laboratory Standards Institute guidelines, against methicillin-sensitive (ATCC 6538 and NRS107), methicillin-resistant (MRSA), and vancomycin-resistant (VRSA) Staphylococcus aureus, Staphylococcus epidermidis, Enterococcus faecalis, E. faecium, Listeria monocytogenes, and Streptococcus pneumoniae clinical isolates. A bacterial solution equivalent to 0.5 McFarland standard was prepared and diluted in cation-adjusted Mueller-Hinton broth (CAMHB) to achieve a bacterial concentration of about 5×10^5 CFU/mL and seeded in 96-well plates. Enterococcus faecium was diluted in brain heart infusion broth. Enterococcus faecalis, Streptococcus pneumonia and Listeria monocytogenes were diluted in tryptone soya broth (TSB). Compounds and control drugs were added in the first row of 96-well plates and serially diluted (to achieve a concentration gradient ranging from 128 to 1 μg/mL). Plates were then incubated aerobically at 37° C. for at least 18 hours. The minimum bactericidal concentration (MBC) of the active compounds was tested by plating 5 μL from wells with no growth onto Tryptic soy agar (TSA) plates.

VRS12 (VRSA) = experiment: MIC/MBC S. aureus strains (Table 8); format: cell-based; conditions: Staphylococcus aureus, Table 8, VRS12 (VRSA); for MBC: read-out: MBC; for MIC: read-out: MIC
Description: as §2

[1] = test system: Enterococcus faecium ATCC 700221 (VRE); experiment: MIC/MBC Gram-positive pathogens (Table 9); format: cell-based; conditions: Table 9; Enterococcus faecium ATCC 700221 (VRE); read-out: MIC
Description: as §2

[2] = test system: Cephalosporin-resistant Streptococcus pneumoniae ATCC 51916; experiment: MIC/MBC Gram-positive pathogens (Table 9); format: cell-based; conditions: ATCC51916
Description: as §1

[3] = test system: Enterococcus faecalis ATCC 51299 (VRE); experiment: MIC/MBC Gram-positive pathogens (Table 9); format: cell-based; conditions: Table 9; Enterococcus faecalis ATCC 51299 (VRE)
Description: as §1

[4] = test system: Listeria monocytogenes ATCC 19111; experiment: MIC/MBC Gram-positive pathogens (Table 9); format: cell-based; conditions: for MBC / MIC: ATCC19111, Table 9, Listeria monocytogenes ATCC 19111
Description: as §1

[5] = test system: Methicillin-resistant Staphylococcus epidermidis NRS101; experiment: MIC/MBC Gram-positive pathogens (Table 9); format: cell-based
Description: as §1

[6] = test system: Methicillin-resistant Streptococcus pneumoniae ATCC 700677; experiment: MIC/MBC Gram-positive pathogens (Table 9); format: cell-based; conditions: ATCC700677
Description: as §1

[7] = test system: human colorectal (Caco-2) cell; experiment: In vitro cytotoxicity against Caco-2 cells (MTS); format: cell-based; conditions: at 32 μg/mL
Description: Tested compounds were assayed (at concentrations of 16, 32, and 64 μg/mL) against a human colorectal (Caco-2) cell to determine the potential toxic effect to mammalian cells in vitro. Briefly, cells were cultured in Dulbecco's Modified Eagle Medium (DMEM) supplemented with 20% fetal bovine serum (FBS), non-essential amino acids (1×), and penicillin-streptomycin at 37° C. with CO2 (5%). Control cells received DMSO alone at a concentration equal to that in drug-treated cell samples. The cells were incubated with the compounds (in triplicate) in a 96-well plate at 37° C. with CO2 (5%) for two hours. The assay reagent MTS 3-(4,5-dimethylthiazol-2-yl)-5-(3-carboxymethoxyphenyl)-2-(4-sulfophenyl)-2H-tetrazolium) (Promega, Madison, Wis., USA) was subsequently added and the plate was incubated for four hours. Absorbance readings (at OD490) were taken using a kinetic microplate reader (Molecular Devices, Sunnyvale, Calif., USA). The quantity of viable cells after treatment with each compound was expressed as a percentage of the viability of DMSO-treated control cells (average of triplicate wells±standard deviation). The toxicity data was analyzed via a two-way ANOVA, with post hoc Sidak's multiple comparisons test (P<0.05), utilizing GraphPad Prism 6.0 (GraphPad Software, La Jolla, Calif.).

In the case of Cc1nc(-c2ccc(C(C)(C)C)cc2)sc1-c1ccnc(NC(=N)c2cccnc2)n1 [Compound 63, N-(4-(2-(4-(tert-Butyl)phenyl)-4-methylthiazol-5-yl)pyrimidin-2-yl) nicotinimidamide], the MIC (MRSA (2658 RCMB)) is reported as 0.78 µg/mL (≈ 1.82 µM), the “bactericidal / bacteriostatic behaviour in time-kill assay, in words” value (MRSA (USA300); 3.0×MIC) is reported as “bacteriostatic activity” and the “decrease in MRSA CFU” value (MRSA (USA300); over 24 hours) is reported as 2.3 log. It also gave an MBC (MRSA NRS119) of 4 µg/mL (≈ 9.33 µM), an MIC (MRSA NRS119) of 4 µg/mL (≈ 9.33 µM) and an MBC (MRSA NRS123 (USA400)) of 4 µg/mL (≈ 9.33 µM). It also gave an MIC (MRSA NRS123 (USA400)) of 4 µg/mL (≈ 9.33 µM), an MBC (MRSA NRS384 (USA300)) of 4 µg/mL (≈ 9.33 µM) and an MIC (MRSA NRS384 (USA300)) of 4 µg/mL (≈ 9.33 µM). For the same compound, the MBC (MRSA NRS385) was 4 µg/mL (≈ 9.33 µM), the MIC (MRSA NRS385) was 4 µg/mL (≈ 9.33 µM) and the MBC (MRSA NRS386) was 4 µg/mL (≈ 9.33 µM). The MIC (MRSA NRS386) was 4 µg/mL (≈ 9.33 µM), the MBC (S. aureus ATCC 6538) was 4 µg/mL (≈ 9.33 µM) and the MIC (S. aureus ATCC 6538) was 4 µg/mL (≈ 9.33 µM). It also gave an MBC (S. aureus NRS107) of 4 µg/mL (≈ 9.33 µM), an MIC (S. aureus NRS107) of 4 µg/mL (≈ 9.33 µM) and an MBC (VRS10 (VRSA)) of 4 µg/mL (≈ 9.33 µM). The MIC (VRS10 (VRSA)) was 4 µg/mL (≈ 9.33 µM), the MBC (VRS12 (VRSA)) was 4 µg/mL (≈ 9.33 µM) and the MIC (VRS12 (VRSA)) was 4 µg/mL (≈ 9.33 µM). For the same compound, the MIC [1] was 8 µg/mL (≈ 18.7 µM), the MBC [2] was 8 µg/mL (≈ 18.7 µM) and the MIC [2] was 4 µg/mL (≈ 9.33 µM). For the same compound, the MIC [3] was 8 µg/mL (≈ 18.7 µM), the MBC [4] was 64 µg/mL (≈ 149 µM) and the MIC [4] was 4 µg/mL (≈ 9.33 µM). For the same compound, the “MBC values relative to MIC values against L. monocytogenes” value ([4]; text b122) was “more than three-fold higher”, the MBC [5] was > 64 µg/mL and the MIC [5] was 64 µg/mL (≈ 149 µM). The MBC [6] was 8 µg/mL (≈ 18.7 µM), the MIC [6] was 4 µg/mL (≈ 9.33 µM) and the “tolerability to human colorectal cells, in words” value [7] was “highly tolerable”.

In the case of Cc1nc(-c2ccc(C(C)(C)C)cc2)sc1-c1ccnc(NC(=N)N(C)C)n1 [Compound 58, 3-(4-(2-(4-(tert-Butyl)phenyl)-4-methylthiazol-5-yl)pyrimidin-2-yl)-1,1-dimethylguanidine], the MIC (MRSA (2658 RCMB)) is reported as 1.17 µg/mL (≈ 2.97 µM), the “bactericidal / bacteriostatic behaviour in time-kill assay, in words” value (MRSA (USA300); 3.0×MIC) is reported as “rapid bactericidal activity” and the “time to completely eradicate the MRSA inoculum” value (MRSA (USA300); t-butyl series, 3.0×MIC) is reported as “within two to four hours”. The MBC (MRSA NRS119) was 8 µg/mL (≈ 20.3 µM), the MIC (MRSA NRS119) was 8 µg/mL (≈ 20.3 µM) and the MBC (MRSA NRS123 (USA400)) was 8 µg/mL (≈ 20.3 µM). It also gave an MIC (MRSA NRS123 (USA400)) of 8 µg/mL (≈ 20.3 µM), an MBC (MRSA NRS384 (USA300)) of 8 µg/mL (≈ 20.3 µM) and an MIC (MRSA NRS384 (USA300)) of 8 µg/mL (≈ 20.3 µM). The MBC (MRSA NRS385) was 8 µg/mL (≈ 20.3 µM), the MIC (MRSA NRS385) was 8 µg/mL (≈ 20.3 µM) and the MBC (MRSA NRS386) was 8 µg/mL (≈ 20.3 µM). For the same compound, the MIC (MRSA NRS386) was 8 µg/mL (≈ 20.3 µM), the MBC (S. aureus ATCC 6538) was 8 µg/mL (≈ 20.3 µM) and the MIC (S. aureus ATCC 6538) was 8 µg/mL (≈ 20.3 µM). It also gave an MBC (S. aureus NRS107) of 8 µg/mL (≈ 20.3 µM), an MIC (S. aureus NRS107) of 8 µg/mL (≈ 20.3 µM) and an MBC (VRS10 (VRSA)) of 8 µg/mL (≈ 20.3 µM). The MIC (VRS10 (VRSA)) was 8 µg/mL (≈ 20.3 µM), the MBC (VRS12 (VRSA)) was 8 µg/mL (≈ 20.3 µM) and the MIC (VRS12 (VRSA)) was 8 µg/mL (≈ 20.3 µM). It also gave an MIC [1] of 8 µg/mL (≈ 20.3 µM), an MIC [3] of 8 µg/mL (≈ 20.3 µM) and an MBC [4] of 8 µg/mL (≈ 20.3 µM). The MIC [4] was 8 µg/mL (≈ 20.3 µM), the MBC [5] was 8 µg/mL (≈ 20.3 µM) and the MIC [5] was 8 µg/mL (≈ 20.3 µM). For the same compound, the “tolerability to human colorectal cells, in words” value [7] was “intolerable”.

Source: patent publication US10414759B2, “Phenylthiazoles and uses thereof” (Purdue Research Foundation, priority 2017, dated 2019)
